Measurements taken from US11198710B2, “Transgenic plant having herbicide resistance” (priority 2016, dated 2021).

Assays:
[1] = system: wild-type Arabidopsis thaliana plant (Columbia-0); assay: Sensitivity of wild-type Arabidopsis thaliana to herbicides on MS agar medium; assay type: in vivo; conditions: 22° C., 14 days
Procedure: A medium was prepared as described below, so as to examine the pyroxasulfone resistance of the Arabidopsis thaliana plant comprising the TaQ8GTC0 gene introduced therein. At the outset, the Murashige-Skoog (MS) media (1 bag), thiamin hydrochloride (3 mg), nicotinic acid (5 mg), pyridoxin hydrochloride (0.5 mg), and sucrose (10 g) were added into a 1-liter beaker, a pH was adjusted to 5.7, the volume of the content was adjusted to 1 liter, and 8 g (0.8%) of agar was added. The resultant was autoclaved and cooled to room temperature, and pyroxasulfone (an acetone solution) was added thereto. A 30-ml fraction thereof was fractionated into a No. 2 square plate to prepare an MS medium containing pyroxasulfone at a given concentration.
Pyroxasulfone sensitivity of transgenic Arabidopsis thaliana plants was tested with the use of the medium prepared above as described below. A necessary amount of Arabidopsis thaliana dry seeds was agitated in 70% ethanol for 2 minutes and in hypochlorous acid containing 0.02% Triton-X-100 for 15 minutes, followed by washing with sterile water 10 times. Subsequently, the seeds were suspended in 1 ml of the autoclaved 0.1% agar solution, the suspension was thoroughly mixed to prepare a homogeneous solution, and a total of 30 seeds were each placed on the medium surface. […]

ZmQ9FQD1 = assay: Pyroxasulfone metabolizing activity based on the growth of cultured rice cells in medium; assay type: cell-based, maize; conditions: cultured rice cells with ZmQ9FQD1 gene; N6D medium, 100 μM (10^−4M) pyroxasulfone, 2 weeks
Procedure: (§1) The 2 lineages of cultured rice cells comprising the maize GST genes introduced thus prepared and the KLB-279 cultured transgenic rice cells (the control cells) were seeded on N6D medium, and pyroxasulfone resistance was inspected based on the growth of cultured rice cells 2 weeks later. Pyroxasulfone was subjected to the test as an acetone solution, the final acetone concentration to be added to the medium was 1%, and the final drug concentration was 10^−4 M.

ZmB8A3K0 = assay: as above; assay type: cell-based, maize; conditions: cultured rice cells with ZmB8A3K0 gene; N6D medium, 100 μM (10^−4M) pyroxasulfone, 2 weeks
Procedure: as §1

[2] = system: wild-type rice plant (Nipponbare); assay: Sensitivity of wild-type rice (Nipponbare) to VLCFAE-inhibiting herbicides, gellan gum medium; assay type: in vivo; conditions: Oryza sativa, 168 h
Procedure: Whether or not a rice plant comprising the TaQ8GTC0 gene introduced therein has VLCFAE-inhibiting herbicide resistance was determined on the basis of a difference in sensitivity of rice between transformant and wild-type. Accordingly, the sensitivity of the wild-type rice plant (Nipponbare) to VLCFAE-inhibiting herbicides used in the glutathione conjugation activity test was examined as described below.
The growth inhibition test was carried out using a gellan gum medium. Hoagland's mix and 3 g of gellan gum were suspended in 1 liter of distilled water and thoroughly dissolved therein by heating in a microwave. A fraction of the resultant (15 ml) was poured in a tubular bottle before it was cooled. When the herbicide (an acetone solution) was to be incorporated thereinto, the herbicide was simultaneously added at the time of filling of the gellan gum medium into the tubular bottle, followed by thorough mixing (final acetone concentration: 0.1%). Rice hulls were soaked in a 50-fold diluted sodium hypochlorite solution (antiformin) (Wako) for approximately 20 minutes and then thoroughly rinsed with water. Sterilized seeds were soaked in distilled water and allowed to stand at 27° C. for germination (for approximately 2 days). Germinating seeds were transferred with the sprout side up to a gellan gum medium containing herbicide (the tubular bottle). Subsequently, these samples, together with a beaker filled with distilled water, were placed in a transparent case, which was then covered with a clear plastic wrap. These samples were grown at 27° C. under fluorescent light illumination (14 hours of a light period and 10 hours of a dark period) for 1 week, the plants were sampled, and the plant heights were then measured. Inhibition of shoot growth was determined by comparison to control plant grown in the absence of herbicide and the concentration required for 50% inhibition (IC50) was determined by the Probit method.

TaQ8GTC1-R protein = assay: Glutathione conjugation activity of the TaQ8GTC1-R protein to pyroxasulfone (HPLC); assay type: biochemical, wheat; conditions: 30° C., 1 hour
Procedure: The glutathione conjugation activity to pyroxasulfone was measured in a reaction mixture (200 μl in total) containing 50 μl of 100 mM potassium phosphate buffer (pH 6.8), 10 μl of 1 mM pyroxasulfone (acetone solution), 20 μl of 10 mM reduced glutathione (pH 7.0), and 120 μl of the TaQ8GTC1-R protein (PBS solution containing 20% glycerol), the reaction was conducted at 30° C. for 1 hour, the reaction product was filtered through a 0.2-μm filter, and 50 μl of the resulting solution was injected into HPLC. A reaction mixture (prepared with the addition of PBS containing 20% glycerol instead of the TaQ8GTC1-R protein) and another reaction mixture (prepared with the addition of PBS containing 20% glycerol and sterile water instead of the TaQ8GTC1-R protein and glutathione, respectively) were prepared as control reaction mixture. […]
Subsequently, the glutathione conjugation activity of the TaQ8GTC1-R protein to pyroxasulfone was examined. […] The amount of the protein added to the enzyme reaction mixture was determined to be 500 ng since about 50% of a total of 10 nmol of the added herbicides was converted into glutathione conjugates when the enzyme activity of the about 400 ng of TaQ8GTC0 (see Example 1) was inspected under the same conditions.

Cn1nc(C(F)(F)F)c(CS(=O)(=O)C2=NOC(C)(C)C2)c1OC(F)F [Pyroxasulfone, 3-[5-(difluoromethoxy)-1-methyl-3-(trifluoromethyl)pyrazol-4-ylmethylsulfonyl]-4,5-dihydro-5,5-dimethyl-1,2-oxazole]
pyroxasulfone concentration at which growth was substantially completely inhibited [1]: ≥ 1 µM
growth of the wild-type Arabidopsis thaliana plant ([1]; pyroxasulfone 100 nM): inhibited to some extent
pyroxasulfone metabolizing activity (growth of cultured rice cells) (ZmQ9FQD1): no pyroxasulfone metabolizing activity
pyroxasulfone metabolizing activity (growth of cultured rice cells) (ZmB8A3K0): no pyroxasulfone metabolizing activity
minimal effective concentration ([2]; minimal concentration at which growth of wild-type rice is inhibited, read-out: Minimal inhibitory concentration): 0.075 µM
IC50 ([2]; shoot growth, 1 week, Probit method, read-out: I50): 48 nM
glutathione conjugation activity to pyroxasulfone (TaQ8GTC1-R protein; 500 ng TaQ8GTC1-R protein): did not possess glutathione conjugation activity
pyroxasulfone added to the reaction mixture converted into M-15 (TaQ8GTC1-R protein; equivalent in enzyme reaction mixture (500 ng protein) and reaction mixture without enzyme): about 3%
